# Data reported in ChEMBL document CHEMBL3507680, “University of Dundee, Gates Library screen for HepG2 cell viability”.
# Assay: Human HepG2 cell viability assay in 384 well format
# Type: toxicity, cell-based
# Set-up: dose 125 nL, time 70.5 hour; cytotoxicity at 70.5 h: concentration not given beside the values
# Details: HepG2 cells, read-out: Inhibition
row,Compound,cytotoxicity at 70.5 h [%]
1,Nc1cc(-c2cc(O)cc(C(=O)O)c2)c2cc[nH]c2n1,-10.3
2,CCN(CC)CC1CN(Cc2cccc(C#N)c2)Cc2nccn2C1 (stereo not given),5.06
3,COc1ccc(S(=O)(=O)N2CCN(C)c3ncccc3C2)cc1,-5.97
4,CC(NC(=O)NCCCn1cccn1)c1ccncc1 (stereo not given),-10.8
5,CCNC(=O)C1CCN(c2nccc(C3CCCC3)n2)C1 (stereo not given),-17.7
6,Cn1ccnc1CN1CCc2c(COCC3CC3)nn(C)c2C1,-6.3
7,O=C(c1occc1CN1C(=O)Cc2ccccc21)N1CCCCCC1,-3.4
8,O=C(NCc1ccccc1)NCC(O)c1cccc(F)c1 (stereo not given),-6.42
9,Cc1ccc(C(O)CNC(=O)c2cccnc2O)cc1 (stereo not given),-12.1
10,c1cc(-c2ccc(CN3CCCC4(CCNC4)C3)s2)[nH]n1 (stereo not given),1.71
11,CNC(=O)CCCNCc1c(C)nn(CC(C)C)c1N(C)C,0.675
12,c1ccc(OC2COC3(CCN(Cc4ccccn4)CC3)C2)cc1 (stereo not given),25.2
13,O=C(c1cncs1)N1CCCC1c1ccn[nH]1 (stereo not given),-3.39
14,Cc1nc(C)n(CC2CN(S(C)(=O)=O)Cc3nccn3C2)n1 (stereo not given),9.77
15,CC(C)n1c(C(=O)N2CCCC2)nc2c1CCN(C)C2,-5.23
16,CCc1nnc2n1CCN(C(=O)CCOc1cc(C)ccc1C)C2,-5.39
17,Cc1ncc(CN2CCOC(CNc3cccnn3)C2)s1 (stereo not given),2.68
18,COc1cccc(-c2nc(C)c(C(=O)NC(CO)CCSC)s2)c1 (stereo not given),-25
19,CCS(=O)(=O)N1CCC(c2nc3ccc(-c4ccccc4)cn3n2)CC1,-5.21
20,COc1ccc(OC)c(CNC2CCCN(c3cccnn3)C2)c1 (stereo not given),-3.12
21,CNC(=O)c1nc2c(s1)CCN(C(=O)c1cccc(OC)c1)CC2,-10
22,Cn1c2c(c(=O)n1C)CN(C(=O)c1ccco1)CCC2,12.8
23,Nc1nc(CCC(=O)N2C[C@@H](CN3CCCC3)C[C@H](CO)C2)n[nH]1,-6.67

row,Compound,cytotoxicity at 70.5 h [%]
1,CC(NC(=O)c1cc(-c2cccc(Cl)c2)no1)C(=O)N(C)C (stereo not given),-17.3
2,CC(=O)c1ccc(N2CCN(C(=O)NCc3cc[nH]n3)CC2)cc1,-2.83
3,CCc1noc(C(C)N2CCN(Cc3nc(C)c(C)o3)CC2)n1 (stereo not given),23.9
4,CCCc1nccn1CCn1cnc2ccsc2c1=O,1.1
5,COCCOc1ccc(C(=O)N2CCCC(n3cncn3)C2)cn1 (stereo not given),10.1
6,O=C(CS(=O)(=O)c1cccc[n+]1[O-])NC1CCCc2ccccc21 (stereo not given),1.9
7,CCOc1ccccc1NC(=O)N(CCO)Cc1ccsc1,2.23
8,CCc1c(C)nc(N)nc1NCCSCc1[nH]cnc1C,-2.58
9,Cc1c(Cl)c(C(=O)N2C[C@@H](C(=O)O)[C@H](c3cccnc3)C2)nn1C,8.35
10,CCCN(CC(=O)NC)C(=O)c1ccc(-c2nc(C)cs2)cc1,-10.1
11,NC(=O)NC(=O)CCN1C(=O)CC(Cc2ccc(F)cc2)C1=O (stereo not given),-13.2
12,O=C(C[C@H]1[C@H]2CN(C(=O)CO)C[C@@H]12)Nc1cccnc1,0.591
13,O=C(c1ccco1)N1CCO[C@@H]2CN(c3ccccn3)CC[C@@H]2C1,-4.86
14,COc1ccc(CN2CCC3(CC2)CC(c2cccnc2)CO3)cc1 (stereo not given),-6.67
15,Cc1nn(C)c(C)c1OCC(=O)NCC(O)Cc1ccccc1 (stereo not given),1.56
16,COCc1cccc(NC(=O)NCc2ncc(C)c(OC)c2C)c1,0.253
17,CN(Cc1cncs1)C1CCN(C(=O)OC(C)(C)C)CC1,-8.3
18,Cc1nc(CN2Cc3cn(C)nc3C(COCC3CC3)C2)cs1 (stereo not given),14.1
19,CNc1cc(CNC(=O)c2ccnc(OC)c2)nc(-c2ccncc2)n1,11.8
20,Cc1ccc(N2CCC(c3cc(Cc4ccccc4)n[nH]3)CC2)nn1,-9.6
21,COCCC(=O)N1Cc2nc3c(C)c(-c4cccs4)nn3c(O)c2C1,-14.7
22,Cc1c(CN2CCCC2c2cncc(CN3CCCC3)n2)cnn1C (stereo not given),1.84
23,Cc1cc(CNS(=O)(=O)CCCC#N)ccc1N(C)C,0.915

row,Compound,cytotoxicity at 70.5 h [%]
1,CC(=O)Nc1nc(C(=O)NC(C)c2ccncc2)cs1 (stereo not given),5.86
2,CN(C)C(=O)c1cccc(CN2CCOC(Cn3cncn3)C2)c1 (stereo not given),-4.81
3,CCCn1cc(Cl)c(C(=O)N2C[C@@H](O)[C@H](Oc3ccccc3)C2)n1,1.62
4,CN(Cc1ccncc1)CC(c1cccs1)N1CCOCC1 (stereo not given),36
5,Cc1cccc2nc(CNCc3cccc4c3OCCCO4)cn12,-0.513
6,COc1ncccc1-c1ncccc1NC(=O)C(C)C,-6.31
7,CSCC[C@H](N)C(=O)NCc1cc2n(n1)CCCN(C(=O)C1CCC1)C2,-4.43
8,c1ccc2c(c1)CC(n1ccnc1-c1cc3n(n1)CCNC3)CO2 (stereo not given),1.41
9,O=C(COCC1CCCO1)N(Cc1cccnc1)c1ccc(F)cc1 (stereo not given),2.18
10,CCOCCn1nc(C)cc1C(=O)N1C[C@@H](C)[C@](O)(C2CC2)C1,-2.07
11,O=S1(=O)NCC2(CCN(c3ncc(F)cn3)CC2)COc2ccccc21,-0.496
12,Cc1cc(CN(C)c2nc(-c3ccco3)nc3c2CCN(C)CC3)on1,-22.6
13,COc1ccc(-c2nc(CN3CCc4c(ncn4C)C3)cs2)cc1,21.3
14,COc1ccccc1C1(NCc2c(C)nc3c(C)cccn23)CCCC1,24.9
15,Cc1cnn(C2CN(Cc3nc(-c4cccnc4)no3)C2)c1,1.92
16,Cc1nccn1C1CCCN(C(=O)C2=NN(C)C(=O)CC2)C1 (stereo not given),9.33
17,O=C(CNC(=O)C1CC1)NCCOc1cccc(Cl)c1Cl,31.3
18,CCc1nc(CN2CCN(C(=O)c3csnn3)CC2)cs1,-0.125
19,O=c1cc(Cn2ccnc2)nc2n1CCCN(Cc1cccs1)C2,-16.6
20,CCCc1nc(N2CCCC(CCOC)C2)c2cnn(C)c2n1 (stereo not given),15.9
21,Nc1cc2c(nn1)CCN(C(=O)CC1CCCCC1)C2,-8.85
22,CN(C)C(=O)CN1CCN(c2ncccn2)[C@@H]2CS(=O)(=O)C[C@@H]21,-3.2
23,Cc1ncncc1C(=O)N1CCOC(C)(C(=O)NC2CCCC2)C1 (stereo not given),-1.33

row,Compound,cytotoxicity at 70.5 h [%]
1,COc1ccc2c(c1)C(NCCc1c(C)noc1C)CCCO2 (stereo not given),29.3
2,COCCCn1cnnc1C(C)NC(=O)c1[nH]c2ccc(C)cc2c1C (stereo not given),-4.22
3,CCNc1ncc(C(=O)NC2CCOCC2)cn1,-5.98
4,CCN1CC(COC(=O)c2cc(C)nn2CC)CC1=O (stereo not given),-7.36
5,CCc1cnc(C)nc1NCCN1CCCCCC1,-11.6
6,CCc1nc(C(=O)N2CCOCC2CC(=O)c2ccccc2)c[nH]1 (stereo not given),-8.59
7,Cc1nc(CN2CCCN(C(=O)c3ccccn3)CC2)oc1C,-10.4
8,CNC(=O)c1cnc2c(C)csc2c1,22
9,CCc1nc(C)c(C2CC(=O)Nc3c2c(-c2ccccn2)nn3C)[nH]1 (stereo not given),1.83
10,Cc1ccccc1-n1ncc2c(=O)n(CCN3CCCCC3)cnc21,21
11,CC(C)C1CN(S(C)(=O)=O)CCCN1Cc1ccc(F)cc1 (stereo not given),-3.17
12,O=C(O)c1cc(S(=O)(=O)Nc2cccc(F)c2F)cc2c1OCCO2,-0.966
13,COC(=O)NCC(=O)N(C)Cc1csc(C)n1,-4.39
14,CN(C)Cc1n[nH]c2c1CCN(Cc1cccs1)C2,-4.47
15,COC[C@@H]1CCC[C@@]12CN(Cc1ccc(C)s1)CCO2,48.9
16,Cc1cc(NC(=O)Cn2cc(C#N)c(=O)c3cc(Br)ccc32)no1,0.537
17,Cc1ccsc1C(=O)N1CCCn2nnc(Cn3cccn3)c2C1,9.85
18,Cc1cc(C)n(Cc2ccc(-c3noc(C(=O)NC[C@@H](C)O)n3)cc2)n1,-14.8
19,O=C1[C@H]2CN(Cc3ccccc3)C[C@H]2CN1c1cncnc1,-2.62
20,O=C1CN(C(=O)CC2C(=O)NCCN2CC2CCCCC2)CCN1 (stereo not given),28.9
21,Cn1cccc1C(=O)N1CCC(O)(CN2CCc3ccccc3C2)C1 (stereo not given),-4.98
22,O=C1COc2c(cccc2C(=O)N2CCCC2Cn2cccn2)N1 (stereo not given),-8.08
23,Cc1nc(CN2CCc3ncnc(-c4ccncc4)c3CC2)cs1,20

row,Compound,cytotoxicity at 70.5 h [%]
1,Cc1cccnc1C(Cc1ccsc1)NC(=O)Cn1cccnc1=O (stereo not given),-1.07
2,CC(=O)N1CCCC(c2ccccn2)C1 (stereo not given),8.66
3,NC(=O)c1cccc(C2CCN(c3ncccn3)CC2)n1,-13.4
4,CCc1n[nH]c(C(=O)N2CCN(c3ccc4ccccc4c3)CC2)c1C,-6.66
5,Cc1nc(N2CCCCC2)ncc1-c1cc(O)[nH]n1,-3.47
6,Cc1cccc(CN2Cc3[nH]nc(COc4cccnc4)c3C2)n1,-3.62
7,O=C(c1ccc[nH]1)N1CCO[C@H]2CC(COCc3ccccn3)C[C@@H]21 (stereo not given in full),2.76
8,CCN1C[C@H]2[C@@H](C1)N(S(=O)(=O)c1ccccc1)CC[C@H]2OC,-2.93
9,O=C(c1ccc(F)c(Br)c1)N1CCCN2CCCC2C1 (stereo not given),-8.34
10,Cc1nn(C)c(C)c1C1COCCN1C(=O)c1ccccc1 (stereo not given),22.5
11,COc1ccc(-c2ccccc2CCN)c(OC)c1,-10.1
12,O=C(NCc1cccnc1)C1=NOC2(CCN(S(=O)(=O)C3CC3)C2)C1 (stereo not given),-10.8
13,COCCOc1ccccc1CNCc1c(C)nn(C)c1N(C)C,-0.188
14,CCc1noc(C(C)N(C)CC(=O)Nc2cccc(C)n2)n1 (stereo not given),-6.94
15,CCc1ccc(C(=O)N2CCN(CCS(C)(=O)=O)CC2)o1,-14.1
16,CCc1cc(CNC(=O)N(C2CC2)C(C)c2ccco2)on1 (stereo not given),23.3
17,Cc1ccc(-c2nc(CN(Cc3cccs3)CC3CCCO3)no2)cc1 (stereo not given),-8.66
18,CCC(NC(=O)NCc1cccc(N(C)C)n1)c1nccs1 (stereo not given),32.1
19,O=C(OCCNc1ncccn1)c1ccc(Br)s1,-0.709
20,O=C(O)c1ccc(S(=O)(=O)Nc2c(F)cccc2-n2cccn2)cc1,-1.35
21,CC(C)c1nc(C2CCCN2C(=O)c2cnc[nH]2)no1 (stereo not given),21.4
22,COc1ccnc(N(C)Cc2ccccc2O)n1,1.42
23,CC(C)c1cc(C(=O)N2CCC3(CCc4ccccc4C(=O)N3)C2)no1 (stereo not given),8.79
